PMC8541546, “Identification of HLA-A2-Restricted Mutant Epitopes from Neoantigens of Esophageal Squamous Cell Carcinoma” (Vaccines, 2021)

Tests used:
KYSE140-MUT cells [1] = assay: Cytotoxicity assay (Cell Trace Far Red) of CTLs from immunized Tg mice; format: in vivo, HLA-A2.1/K^b Tg mice; conditions: KYSE140-MUT group, E/T of 80:1, 4 h
Method: (§1) To investigate whether neoepitopes could induce a peptide-specific T cell response in vivo, HLA-A2.1/K^b Tg mice were used and immunized according to the procedure de-scribed previously. In brief, mutant peptides or WH-mutant peptides (100 μg per mouse) with CpG-ODN 1826 (30 μg per mouse) were injected s.c. in the back of HLA-A2.1/K^b Tg mice (five mice per group, randomly grouped) once a week for three weeks. The normal saline (NS) group was immunized s.c. only with CpG ODN 1826 (30 μg/mouse) once a week for three weeks. Five days after the last injection, spleen lymphocytes were isolated and cultured at the concentration of 5 × 10^6 cells/mL in RPMI 1640 medium. These cells were induced by the same mutant peptides (10 μg/mL) that were used for in vivo stimulation and mIL-2 (30 U/mL) for a week. Intracellular cytokine staining assay (ICS) and cytotoxic assay (E: T ratios = 20:1, 40:1, 80:1) were performed after a week induced in vitro [22].
The cytotoxicity of peptide-specific T cells stimulated by mutant peptides was tested by using Cell Trace Far Red (Thermo Scientific, USA). Transfected cells were suspended in PBS (1 × 10^6 cells/mL) and labelled with Cell Trace Far Red as follows: Control target cells and test target cells were marked by 50 μM and 1 mM Cell Trace Far Red, respectively, at 37 °C for 20 min, protected from light. After incubation, target cells were washed with complete media at 37 °C for 5 min. […] Subsequently, test target cells were mixed with control target cells in a tube, washed once, and analyzed by flow cytometry. Specific lysis (%) = (numbers of control target cells—numbers of test target cells)/numbers of control target cells × 100% [28, 29], where, for tumor cells, the control target cells refer to KYSE140-WT cells marked with 50 μM Cell Trace Far Red, and the test target cell refers to KYSE140-WT or KYSE140-MUT cells marked with 1 mM Cell Trace Far Red, respectively (peptide-specific T cells generated from donors G–K’s PBMCs in vitro or generated from spleen lymphocytes of HLA-A2.1/K^b Tg mice in vivo). […]

[2] = tested on: peptide-pulsed T2A2 cells; assay: Cytotoxicity assay of peptide-induced T cells from donor PBMCs; format: cell-based, human; conditions: donors B–F; E/T 12.5:1, 25:1, 50:1; T2A2 loaded with 50 μg/mL peptide
Method: (§2) DCs involve and play an important role in initiating CD8^+ T cell response. Consequently, ten HLA-A2^+ healthy donors’ PBMCs were isolated, autologous DCs were generated, and CTLs were induced according to the procedure described previously. In brief, PBMCs were seeded at a density of 5 × 10^6 cells/well in a 6-well plate, and after 3 h, the non-adherent cells were removed and cryopreserved for future incubation with mature autologous DCs. Differentiation of the adherent cells into dendritic cells was induced by GM-CSF (100 ng/mL, #300-03, PeproTech, Rocky Hill, NJ, USA) and IL-4 (100 ng/mL; #200-04, PeproTech, USA), with replenishment every 2 days. On day 5, maturation of DCs was induced using 100 ng/mL LPS (#L4516, Sigma-Aldrich, St. Louis, MO, USA), and maturation was checked on day 8 by flow cytometry (BD FACSCelesta™) using markers for anti-human HLA-DR, anti-human CD80, and anti-human CD86. Then, mature DCs (1 × 10^5) were pulsed with each 10 μg /mL individual peptide or no peptides (control) for 2 h at 37 °C. Next, peptide-pulsed DCs were used to prime the previously cryopreserved autologous peripheral blood lymphocytes (PBLs) at a DC/PBL ratio of 1:10 using complete RPMI-1640 media supplemented with 100 IU/mL rhIL-2 (#200-02, PeproTech, USA) and 10 ng/mL rhIL-7 (#200-07, PeproTech, USA). Half of the feeding medium was replenished every 2 days. After 7 days, PBLs were restimulated with freshly pulsed autologous DCs every 7 days.
The cytotoxicity of peptide-specific T cells stimulated by mutant peptides was tested by using Cell Trace Far Red (Thermo Scientific, USA). Transfected cells were suspended in PBS (1 × 10^6 cells/mL) and labelled with Cell Trace Far Red as follows: Control target cells and test target cells were marked by 50 μM and 1 mM Cell Trace Far Red, respectively, at 37 °C for 20 min, protected from light. After incubation, target cells were washed with complete media at 37 °C for 5 min. […] Subsequently, test target cells were mixed with control target cells in a tube, washed once, and analyzed by flow cytometry. Specific lysis (%) = (numbers of control target cells—numbers of test target cells)/numbers of control target cells × 100% [28, 29], where, for tumor cells, the control target cells refer to KYSE140-WT cells marked with 50 μM Cell Trace Far Red, and the test target cell refers to KYSE140-WT or KYSE140-MUT cells marked with 1 mM Cell Trace Far Red, respectively (peptide-specific T cells generated from donors G–K’s PBMCs in vitro or generated from spleen lymphocytes of HLA-A2.1/K^b Tg mice in vivo). Additionally, for T2A2 target cells, T2A2 cells unpulsed and marked with 50 μM Cell Trace Far Red were used as the control target cells, while T2A2 cells loaded with MUT peptides or the corresponding WT peptides (50 μg/mL) or T2A2 cells only were marked with 1 mM Cell Trace Far Red and were used as test target cells (peptide-specific T cells stimulated from donors B–F’s PBMCs).

KYSE140-MUT cells [3] = assay: Intracellular cytokine assay with minigene-transfected tumor cells in vitro; format: cell-based, human; conditions: donors G–K; KYSE140/KYSE150 transfected with WT or MUT minigene; IFN-γ and granzyme B
Method: as §2
Then two vectors were transduced into KYSE140 (HLA-A2^+) and KYSE150 (HLA-A2^−) to get KYSE140-MUT (HLA-A2^+, MUT peptide^+), KYSE140-WT (HLA-A2^+, MUT peptide^−), KYSE150-MUT (HLA-A2^−, MUT peptide^+) and KYSE150-WT (HLA-A2^−, MUT peptide^−) cells (see Supplementary Materials for details).
As for the transfected cells serving as target cells in the in vitro investigation, peptide-specific T cells (from HLA-A2^+ healthy donors G–K) induced by MUT peptides were co-cultured with tumor cell lines transfected with WT or MUT minigenes in IMDM medium in the presence of BFA for 5 h. […]

KYSE140-MUT cells [4] = assay: Intracellular staining (granzyme B) of CTLs from immunized Tg mice; format: in vivo, HLA-A2.1/K^b Tg mice; conditions: 100 μg/mouse s.c. with CpG ODN 1826 once a week for three weeks; spleen lymphocytes re-stimulated with MUT peptide; KYSE140-MUT target cells; n = 5 per group
Method: as §1
To test the MUT peptides stimulation of CTL response in vivo, peptide-specific T cells induced from Tg mice were co-cultured with tumor cell lines transfected with WT or MUT minigenes, as described in the in vitro assay. These T cells were marked by surface marker antibodies anti-mouse CD3 and CD8α before fixation and permeabilization. Intracellular cytokines were marked by anti-mouse IFN-γ or anti-mouse granzyme B, respectively, and analyzed by flow cytometry (BD FACSCelesta™, USA).

[5] = tested on: peptide-pulsed T2A2 cells; assay: IFN-γ intracellular staining of peptide-induced T cells from donor PBMCs; format: cell-based, human; conditions: PBMCs of HLA-A2+ donors B–F, DCs pulsed with 10 μg/mL peptide, three rounds
Method: as §2
When target cells were peptide-pulsed T2A2 cells (MUT peptide or its corresponding WT peptide), peptide-specific T cells (from HLA-A2^+ healthy donors B–F) stimulated by MUT peptides were co-cultured with these cells in the presence of BFA for 5 h. Then T cells were marked by anti-human CD3 and anti-human CD8α monoclonal antibody. Thirty minutes later, cells were fixed by fixation buffer (Thermo Scientific, Waltham, MA, USA) for thirty minutes and washed by permeabilization buffer (Thermo Scientific, USA). Permeabilized T cells were marked by anti-human IFN-γ monoclonal antibody.

Sequence	lysis rate (specific lysis) (KYSE140-MUT cells [1]) [%]	lysis cytotoxicity of MUT peptide-induced T cells on T2A2 cells [2]	processing and presentation of MUT peptide by transfected cells, recognized by CTLs (KYSE140-MUT cells [3])	granzyme B expression of CTLs (KYSE140-MUT cells [4]) [%]	IFN-γ release of MUT peptide-induced T cells, MUT versus WT peptide-loaded T2A2 cells [5]
LLGPNSFEV [TP53-R267P]	71.5	could efficiently lyse corresponding MUT peptide-pulsing T2A2 cells	endogenously processed and presented by transfected cells	0.7	immunogenic
ILWRQDINL [NFE2L2-D13N]	69.5	could efficiently lyse corresponding MUT peptide-pulsing T2A2 cells	endogenously processed and presented by transfected cells	2.3	immunogenic
QVTDFLAPL [PCLO-E4090Q]	76.7	could efficiently lyse corresponding MUT peptide-pulsing T2A2 cells	endogenously processed and presented by transfected cells	1.5	immunogenic
